Experimental data taken from ChEMBL document CHEMBL3137667, “[Drug-induced liver injury; fourteenth updated edition of the bibliographic database of liver injuries and related drugs]” (Gastroenterol Clin Biol, 2004).

Key:
[1] = human, serum, 4383 h
[2] = human
[3] = human; remark: listed apart in the source
[4] = human; remark: listed apart in the source
[5] = human; remark: listed apart in the source
[6] = Highest frequency of moderate liver toxicity observed during clinical trials, expressed as a percentage. [column '% BIOL' in source]; conditions: human
[7] = human; remark: listed apart in the source
[8] = Proposed mechanism(s) of liver damage. [column 'MEC' in source]; conditions: human
[9] = human, serum
[10] = Highest frequency of acute liver toxicity observed during clinical trials, expressed as a percentage. [column '% AIGUE' in source]; conditions: human
[11] = human; remark: listed apart in the source
[12] = human; remark: listed apart in the source
[13] = human; remark: listed apart in the source
[14] = human; remark: listed apart in the source
[15] = human, serum; remark: listed apart in the source
[16] = Times to onset, minimal and maximal, observed in the indexed observations. [column 'DELAI' in source]; conditions: human
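Throughout, for Hepatotoxicity (association with vascular disease): count of indexed literature references reporting vascular liver injury in humans, e.g. peliosis hepatitis, hepatic veno-occlusive disease or Budd-Chiari syndrome.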
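Throughout, for Hepatotoxicity (benign tumour): value is a count of indexed literature references citing a benign tumour confirmed by histopathology.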
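Throughout, for Hepatotoxicity (choleostasis): human cholestatic liver injury, shown by histopathology or by peak ALT or AST elevation over alkaline phosphatase ratio below 2, value counts indexed literature reports.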
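Throughout, for Hepatotoxicity (chronic liver disease): chronic liver injury confirmed by histopathology or persistently raised serum aminotransferase activity beyond 6 months, value given as the count of indexed literature references.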
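Throughout, for Hepatotoxicity (cirrhosis): value is a count of indexed literature references reporting cirrhosis confirmed by histopathology.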
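Throughout, for Hepatotoxicity (cytolytic): human cytolytic liver injury, shown by histopathology or by a ratio above 5 of peak ALT or AST elevation to alkaline phosphatase elevation, value counts indexed references.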
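Throughout, for Hepatotoxicity (granulomatous hepatitis): value is a count of indexed literature references reporting granulomatous liver disease confirmed by histopathology.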
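Throughout, for Hepatotoxicity (malignant tumour): malignant tumour confirmed by histopathology, value gives the count of indexed literature references reporting it.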
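Throughout, for Hepatotoxicity (severe hepatitis): human clinical data: severe hepatitis, meaning potentially life-threatening liver failure or clinically observed cases, the value counts how many indexed literature references report it.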
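Throughout, for Hepatotoxicity (steatosis): steatosis confirmed by histopathology, value is the count of indexed references.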

| Compound | Hepatotoxicity (chronic liver disease) [1] | Hepatotoxicity (malignant tumour) [2] | Hepatotoxicity (steatosis) [3] | Hepatotoxicity (severe hepatitis) [4] | Hepatotoxicity (cirrhosis) [5] | Hepatotoxicity (moderate) [6] | Hepatotoxicity (granulomatous hepatitis) [7] | Hepatotoxicity (mechanism) [8] | Hepatotoxicity (acute) [9] | Hepatotoxicity (acute) [10] | Hepatotoxicity (benign tumour) [11] | Hepatotoxicity (cytolytic) [12] | Hepatotoxicity (association with vascular disease) [13] | Hepatotoxicity (choleostasis) [14] | Hepatotoxicity (moderate) [15] | Hepatotoxicity (time to onset) [16] |
| --- | --- | --- | --- | --- | --- | --- | --- | --- | --- | --- | --- | --- | --- | --- | --- | --- |
| CN(Cc1cnc2nc(N)nc(N)c2n1)c1c(Cl)cc(C(=O)N[C@@H](CCC(=O)O)C(=O)O)cc1Cl | 0 | 0 | 0 | 0 | 0 | 16.7% | 0 | Dose-dependant | 0 | 0% | 0 | 0 | 0 | 0 | 2 |  |
| SERRAPEPTASE | 0 | 0 | 0 | 0 | 0 | 0% | 1 |  | 1 | 0% | 0 | 0 | 0 | 0 | 0 | 2 days |
| SPIRAMYCIN | 0 | 0 | 0 | 0 | 0 | 0% | 0 |  | 4 | 0% | 0 | 0 | 0 | 3 | 0 | 1 day - 4 weeks |
| UROKINASE | 0 | 0 | 0 | 0 | 0 | 0% | 0 |  | 1 | 0% | 0 | 1 | 0 | 0 | 0 | 2 days |
| [3-(8,8-Diethyl-2-aza-8-germa-spiro[4.5]dec-2-yl)-propyl]-dimethyl-amine | 0 | 0 | 0 | 0 | 0 | 27% | 0 |  | 2 | 6.5% | 0 | 0 | 0 | 0 | 6 | 8 weeks |
